Experimental data reported in patent US20020077291A1, “Method of treatment of tumors using transforming growth factor-alpha” (priority 2000, published 2002).

Legend:
[1] = test system: human epidermal cancer cell tumor (A-431); experiment: Effect of TGF-α and cisplatin on tumor growth in the A431 human epidermal cancer MetaMouse model; type: in vivo, nude mice; settings: FIGS. 1 and 3; for tumor growth (mean tumor volume): A431 tumor orthotopically implanted in nude mice, cisplatinum 10 mg/kg days 3, 9 (20), TGF-alpha 50 ug/kg days 3-7, 9-13 (20-24), 26 days; for tumor growth inhibition compared with cisplatinum treatment: TGF-alpha alone 50 ug/kg vs cisplatinum 10 mg/kg, A431 model
Description: (§1) Using a nude mouse model and human epidermal cancer cell tumor (A-431), having 10^7 or greater EGF receptors, the inventors investigated whether TGF-alpha would promote tumor growth. In a parallel experiment, the tumor was treated with a chemotherapeutic agent, cisplatinum. […] In a further parallel experiment, the inventors investigated whether TGF-alpha would directly influence the survival of the tumor. […] Five mice in three of the four groups were sacrificed at this time. […] Phase 3 began on day 20.
The study consisted of four groups of nude mice:
1. Group A—control (15 animals); this group was implanted with tumor and treated only with placebo (according to TGF-injection schedule).
2. Group B—TGF-controls (10 animals); this group was implanted with tumor and received only TGF-injection (according to TGF-injection schedule).
(§2) PHASE 1 :On day 1 all animals were orthotopically implanted with tumor in their breast fat flaps (2-3 tumor tissue specimens per animal). On day 3 in the morning the tumor was measured in all animals. Then animals from group B and D received the first injection of TGF-alpha, animals from group A and C received placebo. Six hours later animals from group C and D received cisplatin injection.
(§3) TGF-alpha was injected at a concentration of 1 microgram per mouse (assuming mouse weighs 20 gram) or 50 microgram per kg.
On day 4, day 5, day 6 and day 7 animals from group B and D received additional TGF-alpha injections spaced 24 hours from the first administration; at the same time, animals from group A and C received placebo.
On day 6 the tumor load in all animals was measured again.
On day 8, five animals were randomly selected from group A, C and D for sacrifice. Their tumor load was measured again, their blood drawn and their intestines, kidneys and spleen removed and preserved. The spleen weight was determined at the time of collection.
(§4) Phase 2. […] On day 10, day 11, day 12 and day 13 animals from group B and D received additional TGF-alpha injections spaced 24 hours from the 9th day administration; animals from group A and C receive placebo at the same time.
On day 12 the tumor load in all animals was measured again. On day 15 […]. their tumor load was measured again, their blood drawn and their intestines, kidneys and spleen removed and preserved. The spleen weight was determined at the time of collection.
Phase 3. On day 20 in the morning the tumor load was measured in all remaining animals according to anticancer procedure. Each group of 10 (groups A, B, C, D) mice were divided into two subgroups: for phase 3A, 5 animals in each group were maintained with no further treatments). […]

[2] = Toxicity (body weight, death) in tumor-bearing nude mice of the A431 model; type: in vivo
Text: as §1, with “growth.” for “growth. In a parallel experiment, the tumor was treated with a chemotherapeutic agent, cisplatinum.”
as §2, with “placebo.” for “placebo. Six hours later animals from group C and D received cisplatin injection.”
as §3, §4
Phase 3. On day 20 in the morning the tumor load was measured in all remaining animals according to anticancer procedure. Each group of 10 (groups A, B, C, D) mice were divided into two subgroups: for phase 3A, 5 animals in each group were maintained with no further treatments). For phase 3B, 5 animals from original groups B and D received another injection of TGF-alpha and animals from original group A and C received placebo. […] On day 21, 22, 23 and 24 the five animals from original groups B and D received additional TGF-alpha injections spaced 24 hours from the 20th day of administration; the five selected animals from original group a and c received placebo at the same time. The experiment was terminated on day 26.
body weight—daily for all animals

[3] = test system: EGF receptor family (e.g., ErbB1 through 4); settings: background statement; cited from earlier work
[4] = background statement; cited from earlier work

Compound	tumor growth (mean tumor volume) [1]	tumor growth inhibition compared with cisplatinum treatment [1]	tumor growth inhibition compared with cisplatinum treatment ([1]; listed as TGF-α)	protection against death caused by the third treatment of cisplatinum ([2]; TGF-alpha 50 ug/kg days 20-24 with cisplatinum 10 mg/kg day 20, FIG. 4)	protection against toxicity of cisplatinum ([2]; TGF-alpha 50 ug/kg given with cisplatinum 10 mg/kg, FIGS. 2 and 4)	body weight ([2]; mean body weight, daily, 26 days, FIGS. 2 and 4, cisplatin effect at the third treatment (day 20))	binding affinity [3]	acid and heat stability [4]
N.N.[Cl][Pt][Cl] [cisplatinum, cisplatin, reference compound]	more effective than the control	–	–	–	–	–	–	–
transforming growth factor alpha [TGF-alpha]	inhibited tumor growth	to the same degree as cisplatinum treatment	as effective as cisplatin	protected against the death	protected against toxicity of cisplatinum	no effect on body weight	high affinity in the nanomolar range	acid and heat stable
